# Test results published in paper PMC7757987, “Antitumor Activity and Mechanism Study of Riluzole and Its Derivatives” (Iranian Journal of Pharmaceutical Research : IJPR, 2020).
# How the values were obtained:
# [1] = system: HeLa (human cervical cancer cell line); test: CCK-8 anti-proliferative assay, HeLa; assay type: cell-based
# Procedure: (§1) HeLa (human cervical cancer cell line), HepG2 (human liver cancer cell line), SP2/0 (mouse myeloma cell line), and LO2 (human normal liver cell line) were cultured in DMEM medium. Each medium was supplemented with 10% fetal bovine serum, 1% L-glutamine and 1% penicillin/streptomycin solution. The cell lines were kept in the incubator at 37 ℃ in a humidified atmosphere (90% RH) containing 5% CO2. […] The cell lines SP2/0 and MCF-7 were obtained from Laboratory Center of Shaanxi Province People’s Hospital.
# (§2) 2×10^3 cells per well were planted into 96-well plates in 100 μL growth medium and incubated for 24 h. […] The mixture was incubated at 37 ℃ under a humidified 5% CO2 atmosphere. After incubation, 10 μL CCK-8 solution was added to each well and the cells were further incubated for 2 h at 37 ℃ according to the CCK-8 Technical Manual. Then, the OD value for each well was read at wavelength 450 nm to determine the cell viability on a microplate reader (Synergy HT, USA). […] The independent experiment was repeated at least three times. The percentage of growth inhibition was calculated as follows according to reference ([18]),
# (§3) % of growth inhibition = [1 - absorbance of treated cells/absorbance of untreated cells] × 100%
# [2] = system: HepG2 (human liver cancer cell line); test: CCK-8 anti-proliferative assay, HepG2; assay type: cell-based
# Procedure: as §1, §2, §3
# [3] = system: SP2/0 (mouse myeloma cell line); test: CCK-8 anti-proliferative assay, SP2/0; assay type: cell-based
# Procedure: as §1, §2, §3
# [4] = system: MCF-7 (human breast cancer cell line); test: CCK-8 anti-proliferative assay, MCF-7; assay type: cell-based
# Procedure: as §1, §2, §3
# [5] = CCK-8 cytotoxicity assay, normal LO2 cells; assay type: cell-based, human; conditions: human, LO2 normal liver cells; CCK-8, 48 h, normal liver cells; read-out: Cytotoxicity (IC50) L02
# Procedure: as §1, §2, §3
# [6] = system: LO2 (human normal liver cell line); test: CCK-8 cytotoxicity assay, normal LO2 cells; assay type: cell-based; conditions: CCK-8
# Procedure: as §1, §2, §3
# HeLa cells [7] = test: Scratch wound healing (anti-migration) assay; assay type: cell-based, human; conditions: 25 μmol/L, 24 h
# Procedure: Once the monolayer was formed, a small scratch was made in the plate using a 10 μL pipette tip (0 h, day 1). The monolayer was once washed with PBS to remove debris or the detached cells from the monolayer. […] Images were taken using an inverted microscope ([19]). The experiments were performed in triplicate.
# The relative scratch healing rate was calculated as follows according to reference ([20]),
# Scratch healing rate = (scratch width at 0 h – the remaining scratch width at 24 h)/scratch width in 0 h×100%
# HeLa cells [8] = test: Cell morphological assessment by Hoechst 33258 staining; assay type: cell-based, human; conditions: HeLa, 12.5, 25 and 50 μmol/L, 24 h
# Procedure: The cell morphological assessment was carried out as described by Wang S ([21]). Morphological changes, such as chromosomal condensation and fragmentation in the nuclei of HeLa, were observed by Hoechst 33258 staining. In brief, HeLa cells were seeded at a concentration of 1×10^6 cells/well in 6-well plate and treated with compound 4a (12.5, 25 and 50 μmol/L) for 24 h. Subsequently, the cells were harvested and washed once with PBS and then fixed with 4% paraformaldehyde in PBS for 10 min. After staining with 10 mg/L Hoechst 33258 for 5 min, the cells were visualized under a fluorescent microscope (Nikon, Japan).
# HeLa cells [9] = test: Flow cytometric analysis of the cell cycle (PI); assay type: cell-based, human; conditions: 24 h, control 3.66%
# Procedure: Cell cycle assay was performed using the cell cycle and apoptosis analysis kit (Beyotime, China) and following the manufacturer’s instructions. The HeLa cells were treated with the indicated concentrations of compound 4a (12.5, 25 and 50 μmol/L) for 24 h. Next, the cells were harvested and washed twice with PBS. The cells were fixed with cold 70% ethanol for 12 h at 4 ℃ and were harvested and centrifuged at 1000 g for 5 min. Then, the cell density was adjusted to 1×10^6 cells/mL with PBS. Finally, the cells were stained with a propidium iodide (PI) solution (50 μg/mL). The number of cells in each phase of the cell cycle was analyzed by flow cytometry (FACSCalibur; BD Bioscience, USA).
# HeLa cells [10] = test: Flow cytometric analysis of cell apoptosis (annexin V-FITC/PI); assay type: cell-based, human; conditions: 24 h, control 0.02%
# Procedure: The cell apoptosis analysis was evaluated by using the annexin V-FITC apoptosis detection kit (Beyotime, China). Briefly, the HeLa cells (1×10^6 cells/well) were seeded into 6-well culture plates and incubated for 24 h. Then the cells were incubated for 24 h with the compound 4a (12.5, 25 and 50 μmol/L). The cells were then rinsed, resuspended in 60 μL binding buffer and incubated for 10 min with 5 μL annexin V-FITC at room temperature, followed by an addition of 120 μL binding buffer and 10 μL PI. The solutions were gently mixed and analyzed with the FACScan flow cytometry. The cells that were not treated were used as the control ([23]).
# [11] = system: Bax, Bcl-2, Caspase-3, Cleaved caspase-3, PI3K in HeLa cells; test: Western blot assay; assay type: cell-based, human; conditions: 24 h; for Ratio of Bax/Bcl-2: HeLa, control 0.072
# Procedure: HeLa cells were seeded into 6-well plates at 10^6 cells per well with different concentrations of compound 4a (12.5, 25 and 50 μmol/L) and incubated at 37 ℃ for 24 h in the presence of 10% FBS. The controls were treated with vehicle (0.5% DMSO). The cells were lysed into ice-cold cell lysis buffer for 30 min and centrifuged at 13000 g for 15 min at 4 ℃. The protein concentrations of the supernatant were determined by a BCA protein Assay Kit. Equal amounts of protein lysates were separated on 10% SDS-PAGE (sodium dodecyl sulfate-polyacrylamide gel electrophoresis) and transferred onto PVDF membranes. The membranes were blocked with 5% non-fat milk in TBST (0.1% Tween 20 in TBS) buffer for 2 h, incubated with primary antibodies at 1:1000 dilutions at 4 ℃, and washed by TBST four times. Then, the membrane was immunobloted with Bax, Bcl-2, Caspase-3, Cleaved caspase-3, PI3K, and β-actin primary antibodies at 1:1000 dilutions at 4 °C for 12 h. After secondary incubation in horseradish peroxidase-conjugated secondary antibodies at 1:3000 at room temperature for 2 h, protein bands were visualized on X-ray film (Kodak, Japan) using ECL (Beyotime, China). The immunoblots were detected by densitometric analysis. Equal loading of protein in each lane was confirmed by probing with β-actin antibody ([24]).
structure (smiles),measurement,setting,value
"CCNc1nc2ccc(OC(F)(F)F)cc2s1 [Compound 4a, 2-(N-ethylamine)-6-trifluoromethoxy-benzothiazole]",IC50,"[1]; Homo sapiens, HeLa, CCK-8, 48 h, read-out: Cytotoxicity (IC50) HeLa",7.76 ± 0.45 µM
same,Selectivity index (SI) HeLa,[1]; IC50 LO2 / IC50 HeLa,8.37
same,IC50,"[2]; Homo sapiens, HepG2, CCK-8, 48 h, read-out: Cytotoxicity (IC50) HepG2",33.7 ± 1.04 µM
same,Selectivity index (SI) HepG2,[2]; IC50 LO2 / IC50 HepG2,1.93
same,Selectivity index (SI) SP2/0,[3]; IC50 LO2 / IC50 SP2/0,1.27
same,IC50,"[3]; Mus musculus, CCK-8, 48 h, read-out: Cytotoxicity (IC50) SP2/0",51.1 ± 2.73 µM
same,IC50,"[4]; Homo sapiens, MCF7, CCK-8, 48 h, read-out: Cytotoxicity (IC50) MCF-7",7.72 ± 0.53 µM
same,Selectivity index (SI) MCF-7,[4]; IC50 LO2 / IC50 MCF-7,8.41
same,IC50 at 48 h,[5],65 ± 4.38 µM
same,Concentration up to which nontoxic to LO2 cells,[6],up to 65 μmol/L
same,Relative scratch healing rate,HeLa cells [7],less than 20%
same,Effect on HeLa cell migration,HeLa cells [7]; versus control group,significantly slower
same,Nuclear morphology (Hoechst 33258),HeLa cells [8],nuclear condensation and fragmentation
same,Cells in the G2/M phase,HeLa cells [9]; 12.5 μmol/L,3.85%
same,Cells in the G2/M phase,HeLa cells [9]; 25 μmol/L,6.63%
same,Cells in the G2/M phase,HeLa cells [9]; 50 μmol/L,8.00%
same,Early apoptotic rate (LR quadrant),HeLa cells [10]; 12.5 μmol/L,4.76%
same,Early apoptotic rate (LR quadrant),HeLa cells [10]; 25 μmol/L,9.63%
same,Early apoptotic rate (LR quadrant),HeLa cells [10]; 50 μmol/L,19.81%
same,Ratio of Bax/Bcl-2,[11]; 12.5μM,0.087
same,Ratio of Bax/Bcl-2,[11]; 25μM,1.092
same,Ratio of Bax/Bcl-2,[11]; 50μM,1.929
same,Expression level of Caspase-3,"[11]; HeLa, 12.5, 25 and 50 μmol/L",not remarkably concentration-dependent change
same,Expression level of PI3K,"[11]; HeLa, 12.5, 25 and 50 μmol/L",not remarkably concentration-dependent change
same,Expression of Bcl-2,"[11]; HeLa, 12.5, 25 and 50 μmol/L",reduced
same,Level of Bax,"[11]; HeLa, 12.5, 25 and 50 μmol/L",increased
same,Level of Cleaved caspase-3,"[11]; HeLa, 12.5, 25 and 50 μmol/L",increased
same,melting point,,133 to 134 °C
